According to PMC5131364, “Pharmacologic modulation of RORγt translates to efficacy in preclinical and translational models of psoriasis and inflammatory arthritis” (Scientific Reports, 2016):
pIC50: −log10 of the molar value. Read-outs that look alike come from different tables or passages of the source.

Key:
Format in all cases: cell-based
[1] = tested on: CD4+ T cells under Th1 conditions; test: Mouse CD4+ T cell in vitro Th1 differentiation; details: titrated compound, ELISA
Experimental: (§1) Mouse CD4+ T cell in vitro Th1 differentiation
(§2) Total CD4+ T cells were isolated from splenocytes of C57/BL6 mice (Chareles River Labrotory) using a CD4+ T cell isolation kit (Miltenyl Biotec, Auburn, CA), following the manufacturer’s instructions. Cells were resuspended in culture medium (described in Method section of Th17 differentiation) and were added to 96‐well plates at 2x10^5 per well. Titrated JNJ‐54271074 was added to each well at final DMSO concentration of 0.2%. Cells were incubated for 1 hour, after which Th1 cell differentiation medium was added with final concentrations of 1 µg/ml anti‐CD3, 5 µg/mL anti‐CD28 (BD Pharmingen, San Diego, CA), 10 µg/ml anti‐IL4, 10 ng/mL IL‐12, (R&D Systems, Minneapolis, MN). Cells were cultured at 37 °C and 5% CO2 for 3 days. Supernatants were collected and the accumulated cytokines in culture were measured by ELISA kits (R&D Systems, Minneapolis, MN) following manufacturers' instructions.
(§3) IL‐23 induced IL‐17A and IL‐22 production in mouse splenocytes splenocytes were isolated from C57/BL6 mice and resuspended in medium and cultured in 96‐well plates at […] per 100 µL per well. […] Supernatants were collected and the accumulated cytokines in culture were measured by ELISA according to the manufacturer’s instructions (IL‐17A kit from R&D systems, and IL‐22 from Biolegend San Diego). […]

mouse splenocytes = test: IL-23 induced IL-17A and IL-22 production in mouse splenocytes; details: Splenocyte, 96 h, IL-23 and IL-2, 4 days
Experimental: as §1, §2, §3

human CCR6+ T cells = test: Human CCR6+ cells under Th1 differentiation condition; details: Th1 polarization conditions
Experimental: as §1, §2
IL‐23 induced IL‐17A and IL‐22 production in mouse splenocytes splenocytes were isolated from C57/BL6 mice and resuspended in medium and cultured in 96‐well plates at […] per 100 µL per well. Titrated JNJ‐54271074 in DMSO were added into each well and cells were incubated for 1 hour, then medium containing IL‐23 and IL‐2 (R&D systems) was added to each well at final concentration of 1 ng/mL and 10 U/ml, respectively. Cells were cultured at 37 °C and 5% CO2 for 4 days. Supernatants were collected and the accumulated cytokines in culture were measured by ELISA according to the manufacturer’s instructions (IL‐17A kit from R&D systems, and IL‐22 from Biolegend San Diego).
Human CCR6+ cells in vitro culture without activation or under Th1 differentiation condition Human CCR6+ cells were isolated as described in Method. For experiment without activation, cells were cultured with recombinant IL‐7 (R&D) at final concentration of 10 ng/ml in the presence of 1 µM JNJ‐ 54271074 for 4 days before intracellular staining. […]

mouse iNKT cells = test: Mouse NKT cell in vitro activation; details: IL-1β/IL-23 plus anti-IFNγ, 4 days, 1 μM
Source text: The following antibodies (anti-mouse or anti-human) were purchased from BD Biosciences (San Diego, CA) or eBioscience (San Diego, CA): anti-CD3-FITC (mouse 17A2 and human SK7), anti-CD4-allophycocyanin (APC), anti-CD4-PerCp, anti-CD4-FITC, anti-CD4-PE (mouse GK1.5 and human SK3), anti-CD44-PerCp (mouse IM7), anti-γδ TCR-FITC, anti-γδ TCR-PE (mouse GL3 and human B1), anti-CD62L-FITC (mouse MEL-14 and human SK11), anti-CD45RO-APC (human UCHL1), anti-CCR6-PE (human 11A9), anti-CD45-PerCp (mouse 30-F11). […] Cells were stained with fluorescence-labeled antibodies for surface marker, then fixed/permeabilized (eBioscience) and stained with antibodies for intracellular cytokines. […] The data were acquired on a FACS Calibur (BD Bioscience) and analyzed using FlowJo software (Tree Star, San Carlos, CA).
Single cell suspension was generated from mouse mesenteric lymph-nodes. […] NKT cells were identified among total live cells using anti-CD3 and mouse conjugated CD1d-tetramer pre-loaded with alpha-GalCer, and cytokine-producing NKT cells were analyzed through intracellular staining. […]

[2] = tested on: iNKT cells from human PBMCs; test: Human NKT cell in vitro activation; details: IL-1β/IL-23, 6 days, 1 μM

- pIC50 (mouse splenocytes; no anti-CD3/anti-CD28, read-out: IC50, IL-23-stimulated IL-17A production): 7.72
- pIC50 (mouse splenocytes; no anti-CD3/anti-CD28, read-out: IC50, IL-23-stimulated IL-22 production): 7.43
Compound: COc1nc2ccc([C@@](O)(c3ccc(C)nc3C)c3cnnn3C)cc2c(Cl)c1Cc1ccc(C(F)(F)F)cc1 [JNJ-54271074]
- IFNγ production under Th1 conditions [1]: minimal effects
- accumulated IFNγ production (human CCR6+ T cells): minimal effect
- IFNγ+ cells (human CCR6+ T cells; 1 μM): slightly increased
- IL-17A+/IFNγ+ and IL-17A+ cells (human CCR6+ T cells; 1 μM): decreased
- IL-17A production by mouse iNKT cells (mouse iNKT cells): suppressed
- IL-17A production by iNKT cells from human PBMCs [2]: suppressed
